Patent US7579469B2, “Glucocorticoid mimetics, methods of making them, pharmaceutical compositions, and uses thereof” (Boehringer Ingelheim Pharmaceuticals, Inc., priority 2003, dated 2009)

The compounds below were run against T1, human glucocorticoid receptor (GR) complex (Homo sapiens, UniProt P04150) (assay: Glucocorticoid receptor competitive binding assay (fluorescence polarization)). Conditions: competition with TAMRA-labeled dexamethasone.
T1 construct: made in house; host or cells: insect expression system (baculovirus lysate)
T1 sequence (P04150 1-777): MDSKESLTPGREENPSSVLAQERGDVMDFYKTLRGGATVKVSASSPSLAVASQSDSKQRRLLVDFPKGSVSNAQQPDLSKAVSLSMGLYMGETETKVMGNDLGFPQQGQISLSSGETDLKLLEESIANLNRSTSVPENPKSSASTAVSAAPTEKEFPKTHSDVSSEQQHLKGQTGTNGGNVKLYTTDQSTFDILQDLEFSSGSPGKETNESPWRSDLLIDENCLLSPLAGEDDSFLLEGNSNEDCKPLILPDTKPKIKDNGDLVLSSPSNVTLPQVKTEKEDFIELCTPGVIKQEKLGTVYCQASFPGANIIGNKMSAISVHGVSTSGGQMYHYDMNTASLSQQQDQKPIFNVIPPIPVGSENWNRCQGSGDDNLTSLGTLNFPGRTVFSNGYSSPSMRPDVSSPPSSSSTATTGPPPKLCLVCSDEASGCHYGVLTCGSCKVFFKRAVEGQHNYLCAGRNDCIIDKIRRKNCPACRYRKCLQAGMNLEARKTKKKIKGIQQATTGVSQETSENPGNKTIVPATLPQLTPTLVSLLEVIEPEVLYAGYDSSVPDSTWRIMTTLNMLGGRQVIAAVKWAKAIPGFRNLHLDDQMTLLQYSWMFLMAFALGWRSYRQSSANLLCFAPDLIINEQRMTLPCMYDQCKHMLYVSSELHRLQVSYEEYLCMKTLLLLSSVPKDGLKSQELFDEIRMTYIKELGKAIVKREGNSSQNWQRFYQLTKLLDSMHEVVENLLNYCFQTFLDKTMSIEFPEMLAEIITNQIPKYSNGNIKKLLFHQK
Method: Compounds of the invention were evaluated for binding to the steroid receptor by a fluorescence polarization competitive binding assay.
A. Glucocorticoid Receptor Competitive Binding Assay
Step 1. Characterization of the Fluorescent Probe
The wavelengths for maximum excitation and emission of the fluorescent probe should first be measured. An example of such a probe is rhodamine (TAMRA)-labeled dexamethasone.
The affinity of the probe for the steroid receptor was then determined in a titration experiment. The fluorescence polarization value of the probe in assay buffer was measured on an SLM-8100 fluorometer using the excitation and emission maximum values described above. Aliquots of expression vector lysate were added and fluorescence polarization was measured after each addition until no further change in polarization value was observed. Non-linear least squares regression analysis was used to calculate the dissociation constant of the probe from the polarization values obtained for lysate binding to the probe.
Step 2. Screening for Inhibitors of Probe Binding
This assay uses fluorescence polarization (FP) to quantitate the ability of test compounds to compete with tetramethyl rhodamine (TAMRA)-labeled dexamethasone for binding to a human glucocorticoid receptor (GR) complex prepared from an insect expression system. The assay buffer was: 10 mM TES, 50 mM KCl, 20 mM Na2MoO4.2H20, 1.5 mM EDTA, 0.04% w/v CHAPS, 10% v/v glycerol, 1 mM dithiothreitol, pH 7.4. Test compounds were dissolved to 1 mM in neat DMSO and then further diluted to 10× assay concentration in assay buffer supplemented with 10% v/v DMSO. Test compounds were serially diluted at 10× assay concentrations in 10% DMSO-containing buffer in 96-well polypropylene plates. Binding reaction mixtures were prepared in 96-well black Dynex microtiter plates by sequential addition of the following assay components to each well: 15 μL of 10× test compound solution, 85 μL of GR-containing baculovirus lysate diluted 1:170 in assay buffer, and 50 μL of 15 nM TAMRA-labeled dexamethasone. Positive controls were reaction mixtures containing no test compound; negative controls (blanks) were reaction mixtures containing 0.7 μM to 2 μM dexamethasone. […] IC50 values were determined by iterative non-linear curve fitting of the FP signal data to a 4-parameter logistic equation.

Activity in the GR binding assay, potent activity:
Cc1cn(CC(O)(CC(C)(C)c2cc(F)ccc2O)C(F)(F)F)cc(C)c1=O (stereo not drawn) [1-[4-(5-Fluoro-2-hydroxyphenyl)-2-hydroxy-4-methyl-2-trifluoromethylpentyl]-3,5-dimethyl-1H-pyridin-4-one], CC(C)(CC(O)(Cn1[nH]c(=O)c2ccccc21)C(F)(F)F)c1cc(F)ccc1O (stereo not drawn) [1-[4-(5-Fluoro-2-hydroxyphenyl)-2-hydroxy-4-methyl-2-trifluoromethylpentyl]-1,2-dihydroindazol-3-one], CC(=NO)c1cccc(C(C)(C)CC(O)(Cn2ccc(=O)c3ccccc32)C(F)(F)F)c1 (stereo not drawn) [1-(2-Hydroxy-4-{3-[1-(hydroxyimino)ethyl]phenyl}4-methyl-2-trifluoromethylpentyl)-1H-quinolin-4-one], COc1ccc(F)cc1C(C)(C)CC(O)(CN1CC[S+]([O-])c2ccccc21)C(F)(F)F (stereo not drawn) [1,1,1-Trifluoro-4-(5-fluoro-2-methoxyphenyl)-4-methyl-2-(1-oxo-2,3-dihydro-1H-1λ^4-benzo[1,4]thiazin-4-ylmethyl)pentan-2-ol], Cc1ccc(F)cc1C(C)(C)CC(O)(Cn1cc(C)c(=O)c(C)c1)C(F)(F)F (stereo not drawn) [1-[4-(5-Fluoro-2-methylphenyl)-2-hydroxy-4-methyl-2-trifluoromethylpentyl]-3,5-dimethyl-1H-pyridin-4-one], Cc1ccc(C)c(C(C)(C)CC(O)(Cn2ccc(=O)c3ccccc32)C(F)(F)F)c1 (stereo not drawn), CC(C)(CC(O)(Cn1ccc(=O)c2ccccc21)C(F)(F)F)c1cc(-c2ccsc2)ccc1O (stereo not drawn) [1-[2-Hydroxy-4-(2-hydroxy-5-thiophen-3-ylphenyl)-4-methyl-2-trifluoromethylpentyl]-1H-quinolin-4-one], COc1ccc(F)cc1C(C)(C)CC(O)(Cn1ccc(=O)c2cc(C)ccc21)C(F)(F)F (stereo not drawn), CC(C)(CC(O)(Cn1ccc(=O)c2ccccc21)C(F)(F)F)c1cccc(C2(C)OCCO2)c1 (stereo not drawn) [1-{2-Hydroxy-4-methyl-4-[3-(2-methyl-[1,3]dioxolan-2-yl)phenyl]-2-trifluoromethylpentyl}-1H-quinolin-4-one], COc1ccc(-c2cccnc2)cc1C(C)(C)CC(O)(Cn1ccc(=O)c2ccccc21)C(F)(F)F (stereo not drawn), COc1ccc(F)cc1C(C)(C)CC(O)(Cn1ccc(=O)c2ccccc21)C(F)F (stereo not drawn), CC(C)(CC(O)(Cn1ccc(=O)c2ccccc21)C(F)(F)F)c1cc(Br)ccc1O (stereo not drawn) [1-[4-(5-Bromo-2-hydroxyphenyl)-2-hydroxy-4-methyl-2-trifluoromethylpentyl]-1H-quinolin-4-one], Cc1cn(CC(O)(CC(C)(C)c2cc(F)ccc2O)C(F)(F)F)c(CO)c(C)c1=O (stereo not drawn) [1-[4-(5-Fluoro-2-hydroxyphenyl)-2-hydroxy-4-methyl-2-trifluoromethylpentyl]-2-hydroxymethyl-3,5-dimethyl-1H-pyridin-4-one], Cc1cc(C)c(O)c(C(C)(C)CC(O)(Cn2ccc(=O)c3ccccc32)C(F)(F)F)c1 (stereo not drawn) [1-[2-Hydroxy-4-(2-hydroxy-3,5-dimethylphenyl)-4-methyl-2-trifluoromethylpentyl]-1H-quinolin-4-one], COc1ccc(F)cc1C(C)(C)CC(O)(CN1CCN(c2ncc(C(F)(F)F)cc2Cl)CC1)C(F)(F)F (stereo not drawn) [2-[4-(3-Chloro-5-trifluoromethylpyridin-2-yl)piperazin-1-ylmethyl]-1,1,1-trifluoro-4-(5-fluoro-2-methoxyphenyl)-4-methylpentan-2-ol], COc1ccc(F)cc1C(C)(C)CC(O)(Cn1cc(C)c(=O)c2ccccc21)C(F)(F)F (stereo not drawn), COc1ccc(F)cc1C(C)(C)CC(O)(Cn1[nH]c(=O)c2ccccc21)C(F)(F)F (stereo not drawn) [1-[4-(5-Fluoro-2-methoxyphenyl)-2-hydroxy-4-methyl-2-trifluoromethylpentyl]-1,2-dihydroindazol-3-one], COc1ccc(F)cc1C(C)(C)CC(O)(CN1CCN(C)c2ccccc21)C(F)(F)F (stereo not drawn) [1,1,1-Trifluoro-4-(5-fluoro-2-methoxyphenyl)-4-methyl-2-(4-methyl-3,4-dihydro-2H-quinoxalin-1-ylmethyl)pentan-2-ol], Cc1noc(C)c1-c1ccc(O)c(C(C)(C)CC(O)(Cn2ccc(=O)c3ccccc32)C(F)(F)F)c1 (stereo not drawn) [1-{4-[5-(3,5-Dimethylisoxazol-4-yl)-2-hydroxyphenyl]-2-hydroxy-4-methyl-2-trifluoromethylpentyl}-1H-quinolin-4-one], CC(C)(CC(O)(Cn1ccc(=O)c2ccccc21)C(F)(F)F)c1cccc(CN2CCOCC2)c1 (stereo not drawn), CC(C)(CC(O)(Cn1ccc(=O)c2ccccc21)C(F)(F)F)c1cc(F)ccc1OC(F)F (stereo not drawn), COc1ccc(F)cc1C(C)(C)CC(O)(Cn1ccc(=O)c2ccccc21)C1CC1 (stereo not drawn), COc1ccc(-c2cncnc2)cc1C(C)(C)CC(O)(Cn1ccc(=O)c2ccccc21)C(F)(F)F (stereo not drawn), COc1ccc(C2OCCCO2)cc1C(C)(C)CC(O)(Cn1ccc(=O)c2ccccc21)C(F)(F)F (stereo not drawn) [1-[4-(5-[1,3]Dioxan-2-yl-2-methoxyphenyl)-2-hydroxy-4-methyl-2-trifluoromethylpentyl]-1H-quinolin-4-one], COc1ccc(F)cc1C(C)(C)CC(O)(CN1CCN(C(=O)c2ccco2)CC1)C(F)(F)F (stereo not drawn) [{4-[4-(5-Fluoro-2-methoxyphenyl)-2-hydroxy-4-methyl-2-trifluoromethylpentyl]piperazin-1-yl}furan-2-ylmethanone], CC(C)(CC(O)(Cn1ccc(=O)c2ccccc21)C(F)(F)F)c1cccc(CO)c1 (stereo not drawn), CC(C)(CC(O)(Cn1ccc(=O)c2ccccc21)C(F)(F)F)c1ccc(F)cc1 (stereo not drawn) [1-[4-(4-Fluorophenyl)-2-hydroxy-4-methyl-2-trifluoromethylpentyl]-1H-quinolin-4-one], CC(C)(CC(O)(Cn1ccc(=O)c2ccccc21)C(F)(F)F)c1cc(F)ccc1OCc1ccccc1 (stereo not drawn), CON=C(C)c1cccc(C(C)(C)CC(O)(Cn2ccc(=O)c3ccccc32)C(F)(F)F)c1 (stereo not drawn) [1-(2-Hydroxy-4-{3-[1-(methoxyimino)ethyl]phenyl}4-methyl-2-trifluoromethylpentyl)-1H-quinolin-4-one], COc1ccc(C=O)cc1C(C)(C)CC(O)(Cn1ccc(=O)c2ccccc21)C(F)(F)F (stereo not drawn) [4-Methoxy-3-[4,4,4-trifluoro-3-hydroxy-1,1-dimethyl-3-(4-oxo-4H-quinolin-1-ylmethyl)butyl]benzaldehyde]
